We go through 26 compounds from patent publication US20220089592A1, “IMIDAZO[1,2-A]PYRIDINYL DERIVATIVES AS IRAK4 INHIBITORS” (priority 2019, published 2022).

This assay deals with T1, IRAK4 (Homo sapiens, UniProt Q9NWZ3).
T1 sequence (Q9NWZ3 1-460): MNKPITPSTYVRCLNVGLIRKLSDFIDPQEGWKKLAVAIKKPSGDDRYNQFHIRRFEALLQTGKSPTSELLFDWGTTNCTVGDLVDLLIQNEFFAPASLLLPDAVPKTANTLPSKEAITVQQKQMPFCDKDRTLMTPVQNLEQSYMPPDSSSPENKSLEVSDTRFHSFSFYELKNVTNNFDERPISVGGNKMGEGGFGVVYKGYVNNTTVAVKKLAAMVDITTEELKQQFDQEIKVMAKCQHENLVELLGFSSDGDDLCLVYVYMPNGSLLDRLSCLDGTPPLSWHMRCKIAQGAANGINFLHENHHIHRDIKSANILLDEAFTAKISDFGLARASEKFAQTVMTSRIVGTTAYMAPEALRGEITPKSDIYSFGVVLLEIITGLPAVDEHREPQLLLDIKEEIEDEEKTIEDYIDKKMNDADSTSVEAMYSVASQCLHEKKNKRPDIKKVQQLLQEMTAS
As to the kind of experiment: 2-hour 1 mM ATP IRAK4 Biochemical assay (as above, but with 100 pM IRAK4 and 1 mM ATP). To be noted: IRAK4 MSD BIOCHEMICAL (1 mM ATP) IC50 (μM), 100 pM IRAK4, 2 hours. The method, then: The 2-hour 10 μM ATP Biochemical Assay employs a MesoScale Detection (MSD) format.
The activity is quenched with 11 μl of 70 mM EDTA, pH 8.
To detect the phosphorylated biotinylated peptide substrate, 30 μl of the quenched reaction mixture is added to equivalent wells of a 384 well streptavidin coated MesoScale plate (Meso Scale Discovery #L21SA-1). After a 1 hour incubation of the plate for 1 hour at room temperature with gentle mixing, the plate wells are washed 3 times with 50 mM Tris, pH 7.5, 150 mM NaCl, 0.02% Tween-20.
A 25 μl volume of 1:500 anti-P-Threonine Rabbit polyclonal Antibody plus 1:500 Goat-anti-Rabbit Sulfo Tag Antibody (Meso Scale Discovery R32AB-1) in 50 mM Tris, pH 7.5, 150 mM NaCl, 0.02% Tween-20 plus 2% BSA is then added to each well. After a 1-hour incubation of the plate for 1 hour at room temperature with gentle mixing, the plate wells are washed, 3 times with 50 mM Tris, pH 7.5, 150 mM NaCl, 0.02% Tween-20. A 40 μl volume of 2×MSD Read Buffer (Meso Scale Discovery R92TC-1) is added to each well, and the plate is read immediately in an MSD Plate Reader (Meso Scale Discovery).
The 2-hour 1 mM ATP IRAK4 Biochemical assay was performed as described above, but with 100 pM IRAK4 and 1 mM ATP.
Take `CC1(C)CCC1Oc1cc2nc(C3CCOCC3)cn2cc1NC(=O)c1cccc(C(F)F)n1` (centres unmarked) [Example 177, 6-(difluoromethyl)-N-(7-(2,2-dimethylcyclobutoxy)-2-(tetrahydro-2H-pyran-4-yl)imidazo[1,2-a]pyridin-6-yl)picolinamide]: half-maximal inhibition (IC50) was put at 0.001 µM.

The compound `O=C(Nc1cn2cc(C3CCOCC3)nc2cc1OC1CCOC1)c1cccc(C(F)F)n1` (centres unmarked) [Example 183, 6-(difluoromethyl)-N-(2-(tetrahydro-2H-pyran-4-yl)-7-((tetrahydrofuran-3-yl)oxy)imidazo[1,2-a]pyridin-6-yl)picolinamide] showed an IC50 of 0.001 µM.

For `C[C@@H]1C[C@H](Oc2cc3nc(C4CCOCC4)cn3cc2NC(=O)c2cccc(C(F)F)n2)C[C@H](C)O1` [Example 187, 6-(difluoromethyl)-N-(7-(((2R*,4R*,6S*)-2,6-dimethyltetrahydro-2H-pyran-4-yl)oxy)-2-(tetrahydro-2H-pyran-4-yl)imidazo[1,2-a]pyridin-6-yl)picolinamide], the IC50 was 0.001 µM.

As for `O=C(Nc1cn2cc(C3CCOCC3)nc2cc1OCCF)c1cccc(C(F)F)n1` [Example 188, 6-(difluoromethyl)-N-(7-(2-fluoroethoxy)-2-(tetrahydro-2H-pyran-4-yl)imidazo[1,2-a]pyridin-6-yl)picolinamide], the IC50 was found to be 0.001 µM.

On to `CCO[C@H]1C[C@H](Oc2cc3nc(C4CCOCC4)cn3cc2NC(=O)c2cccc(C(F)F)n2)C1` [Example 190, 6-(difluoromethyl)-N-(7-((1R*,3R*)-3-ethoxycyclobutoxy)-2-(tetrahydro-2H-pyran-4-yl)imidazo[1,2-a]pyridin-6-yl)picolinamide], for which inhibition was half-maximal at 0.001 µM (IC50).

Turning to `O=C(Nc1cn2cc(C3CCOCC3)nc2cc1OCC1CC(F)(F)C1)c1cccc(C(F)F)n1` [Example 191, N-(7-((3,3-difluorocyclobutyl)methoxy)-2-(tetrahydro-2H-pyran-4-yl)imidazo[1,2-a]pyridin-6-yl)-6-(difluoromethyl)picolinamide], the IC50 was found to be 0.002 µM.

In turn, `O=C(Nc1cn2cc(C3CCOCC3)nc2cc1OCCOC(F)F)c1cccc(C(F)F)n1` [Example 192, N-(7-(2-(difluoromethoxy)ethoxy)-2-(tetrahydro-2H-pyran-4-yl)imidazo[1,2-a]pyridin-6-yl)-6-(difluoromethyl)picolinamide] yielded an IC50 of 0.002 µM.

With `O=C(Nc1cn2cc(C3CCOCC3)nc2cc1OCC1CCCOC1)c1cccc(C(F)F)n1` (centres unmarked) [Example 193, 6-(difluoromethyl)-N-(7-((tetrahydro-2H-pyran-3-yl)methoxy)-2-(tetrahydro-2H-pyran-4-yl)imidazo[1,2-a]pyridin-6-yl)picolinamide], the IC50 came to 0.001 µM.

`O=C(Nc1cn2cc(C3CCOCC3)nc2cc1OCC1CC12CCOC2)c1cccc(C(F)F)n1` (centres unmarked) [Example 194, N-(7-((5-oxaspiro[2.4]heptan-1-yl)methoxy)-2-(tetrahydro-2H-pyran-4-yl)imidazo[1,2-a]pyridin-6-yl)-6-(difluoromethyl)picolinamide] showed an IC50 of 0.002 µM.

`O=C(Nc1cn2cc(C3CCOCC3)nc2cc1OCCC1CCOC1)c1cccc(C(F)F)n1` (centres unmarked) [Example 195, 6-(difluoromethyl)-N-(2-(tetrahydro-2H-pyran-4-yl)-7-(2-(tetrahydrofuran-3-yl)ethoxy)imidazo[1,2-a]pyridin-6-yl)picolinamide]: the IC50 came to 0.002 µM.

Take `O=C(Nc1cn2cc(C3CCOCC3)nc2cc1OCC1CC1(F)F)c1cccc(C(F)F)n1` (centres unmarked) [Example 196, N-(7-((2,2-difluorocyclopropyl)methoxy)-2-(tetrahydro-2H-pyran-4-yl)imidazo[1,2-a]pyridin-6-yl)-6-(difluoromethyl)picolinamide]: it took 0.001 µM to reach half-maximal inhibition (IC50).

Compound `CC1(COc2cc3nc(C4CCOCC4)cn3cc2NC(=O)c2cccc(C(F)F)n2)CCOC1` (centres unmarked) [Example 197, 6-(difluoromethyl)-N-(7-((3-methyltetrahydrofuran-3-yl)methoxy)-2-(tetrahydro-2H-pyran-4-yl)imidazo[1,2-a]pyridin-6-yl)picolinamide] showed an IC50 of 0.004 µM.

With `O=C(Nc1cn2cc(C3CCOCC3)nc2cc1OCC1(C(F)F)CCC1)c1cccc(C(F)F)n1` [Example 198, 6-(difluoromethyl)-N-(7-((1-(difluoromethyl)cyclobutyl)methoxy)-2-(tetrahydro-2H-pyran-4-yl)imidazo[1,2-a]pyridin-6-yl)picolinamide], half-maximal inhibition (IC50) was put at 0.001 µM.

Take `CC12CC(c3cn4cc(NC(=O)c5cccc(C(F)F)n5)nc(OCc5ccccc5)c4n3)(CO1)C2` [Example 199, N-(8-(benzyloxy)-2-(1-methyl-2-oxabicyclo[2.1.1]hexan-4-yl)imidazo[1,2-a]pyrazin-6-yl)-6-(difluoromethyl)picolinamide]: the midpoint of inhibition, the IC50, lay at 0.016 µM.

Compound `CC12CC(c3cn4cc(NC(=O)c5cccc(C(F)F)n5)nc(O)c4n3)(CO1)C2` [Example 200, 6-(difluoromethyl)-N-(8-hydroxy-2-(1-methyl-2-oxabicyclo[2.1.1]hexan-4-yl)imidazo[1,2-a]pyrazin-6-yl)picolinamide] gave an IC50 of 0.06 µM.

`CCOc1nc(NC(=O)c2cccc(C(F)F)n2)cn2cc(C34COC(C)(C3)C4)nc12` [Example 201, 6-(difluoromethyl)-N-(8-ethoxy-2-(1-methyl-2-oxabicyclo[2.1.1]hexan-4-yl)imidazo[1,2-a]pyrazin-6-yl)picolinamide] displayed an IC50 of 0.004 µM.

With `CCOc1cc2nc(C3CCOCC3)cn2cc1NC(=O)c1cccc(CC)n1` [Example 217, N-(7-ethoxy-2-(tetrahydro-2H-pyran-4-yl)imidazo[1,2-a]pyridin-6-yl)-6-ethylpicolinamide], the IC50 came to 0.001 µM.

`CC(C)Oc1cc2nc(C3CCOCC3)cn2cc1NC(=O)c1cc(C(F)F)cs1` [Example 232, 4-(difluoromethyl)-N-(7-isopropoxy-2-(tetrahydro-2H-pyran-4-yl)imidazo[1,2-a]pyridin-6-yl)thiophene-2-carboxamide]: half-maximal inhibition (IC50) required 0.044 µM.

As to `CCOc1cc2nc(C3C4COCC43)cn2cc1NC(=O)c1ccn(CC(F)(F)F)n1` (centres unmarked) [Example 235, N-(2-(3-oxabicyclo[3.1.0]hexan-6-yl)-7-ethoxyimidazo[1,2-a]pyridin-6-yl)-1-(2,2,2-trifluoroethyl)-1H-pyrazole-3-carboxamide], it took 0.023 µM to reach half-maximal inhibition (IC50).

Consider `COc1cc(NC(=O)c2csc(C3CC3)n2)cn2cc(C3CCOCC3)nc12` [Example 244, 2-cyclopropyl-N-(8-methoxy-2-(tetrahydro-2H-pyran-4-yl)imidazo[1,2-a]pyridin-6-yl)thiazole-4-carboxamide], for which inhibition was half-maximal at 0.028 µM (IC50).

As for `CCOc1cc2nc(CC3CCS(=O)(=O)C3)cn2cc1NC(=O)c1cccc(C(F)F)n1` (centres unmarked) [Example 257, 6-(difluoromethyl)-N-(2-((1,1-dioxidotetrahydrothiophen-3-yl)methyl)-7-ethoxyimidazo[1,2-a]pyridin-6-yl)picolinamide], the IC50 came to 0.001 µM.

As for `CC(C)Oc1cc2nc(C34CC(F)(C3)C4)cn2cc1NC(=O)c1cccc(C(F)F)n1` [Example 258, 6-(difluoromethyl)-N-(2-(3-fluorobicyclo[1.1.1]pentan-1-yl)-7-isopropoxyimidazo[1,2-a]pyridin-6-yl)picolinamide], inhibition was half-maximal at 0.001 µM (IC50).

For `COC(=O)C(C)(C)c1cn2cc(NC(=O)c3cccc(C(F)F)n3)c(OC(C)C)cc2n1` [Example 261, methyl 2-(6-(6-(difluoromethyl)picolinamido)-7-isopropoxyimidazo[1,2-a]pyridin-2-yl)-2-methylpropanoate], 0.002 µM corresponded to half-maximal inhibition (IC50).

The compound `CC(C)Oc1cc2nc(C(C)(C)C(=O)O)cn2cc1NC(=O)c1cccc(C(F)F)n1` [Example 262, 2-(6-(6-(difluoromethyl)picolinamido)-7-isopropoxyimidazo[1,2-a]pyridin-2-yl)-2-methylpropanoic acid] came in with an IC50 of 0.006 µM.

With `Cc1nn(C)cc1-c1cn2cc(NC(=O)c3cccc(C(F)F)n3)c(OC(C)C)cc2n1` [Example 263, 6-(difluoromethyl)-N-(2-(1,3-dimethyl-1H-pyrazol-4-yl)-7-isopropoxyimidazo[1,2-a]pyridin-6-yl)picolinamide], half-maximal inhibition (IC50) required 0.001 µM.

The compound `CC(C)Oc1cc2nc(-c3cn(C)nc3C(F)F)cn2cc1NC(=O)c1cccc(C(F)F)n1` [Example 264, 6-(difluoromethyl)-N-(2-(3-(difluoromethyl)-1-methyl-1H-pyrazol-4-yl)-7-isopropoxyimidazo[1,2-a]pyridin-6-yl)picolinamide] returned an IC50 of 0.002 µM.

The term IC50 denotes the concentration at which inhibition is half-maximal. Lower therefore signals inhibition by little substance.
